Patent US4410525A, “Alkoxy pyrazole derivatives and compositions” (Establissements Nativelle S.A., priority 1981, dated 1983)
Like-named read-outs stand apart in the source and are kept apart here.

Experiments:
anesthetized dog = experiment: Hemodynamic effects on the anesthetized dog; assay type: in vivo; conditions: for (dp/dt)l/p, percentage of variation / Cardiac flow, percentage of variation / Cardiac frequency, percentage of variation / Contraction force of the myocardium, percentage of variation / Systolic arterial pressure, percentage of variation / Systolic volume, percentage of variation: vs pretreatment
Procedure: Cardiovascular tolerance was studied on the isolated guinea pig auricle, on the anesthetized rat and on the anesthetized dog.
On the anesthetized dog, the results obtained with respect to hemodynamic tolerance are summarized in Table 2 below which indicates the percentages of variation of the hemodynamic parameters in relation to the pre-treatment control period for the derivatives of Examples 2 and 4.
The parameters were recorded by means of:
Catheters connected to pressure sensors (arterial pressure, left ventricular pressure and its first derivative dp/dt);
Electromagnetic flowmeter on the aorta (aortic flow);
Strain gauge placed on the left ventricular myocardium (force of myocardiac contraction).
The derivatives were injected intraveneously, one dose approximately every 30 minutes and their effects were measured 20 minutes after the completion of the injection (length of the injection 2 minutes).

[1] = test system: isolated guinea pig auricle; experiment: Maximum stimulation frequency test on isolated guinea pig auricle; conditions: Cavia porcellus; 10 mg/l; read-out: Δ% MFS (decrease of the maximum frequency followed)
Procedure: The maximum frequency test carried out studied the maximum stimulation frequency which can cause contraction of an isolated guinea pig auricle placed in a solution containing a derivative of the invention. The measurement was carried out before (control period) and then after introduction of the derivative into the solution.

[2] = Acute toxicity (lethal dose 50) in the mouse; conditions: in vivo
Source text: The acute toxicity of the deriatives of the invention were studied by oral administration (P.O) to the mouse (10 animals, 5 males and 5 females per dose) and calculation of the lethal dose 50 (LD 50) in accordance with the method of Litchfield and Wilcoxon (J. Pharmacol., 96, 99-113 (1949)). Table 1 gives the LD 50 values of the derivatives of the invention.
In certain cases, the LD 50 was also studied after intraperitoneal injection (I.P.) of the derivatives.

rabbit cornea = experiment: Local contact anesthesia on the rabbit cornea; assay type: in vivo; conditions: solution at 0.25% or 1% by weight, eyewash instillation
Source text: For example, the derivatives described in Examples 2, 3, 4, 6, 7 and 9 are local anesthetics (100% anesthesia) in a solution at 0.25% or 1% by weight.

[3] = test system: ventricular arrhythmias induced by aconitine in the anesthetized rat; experiment: Antiarrhythmic test with aconitine on the rat; assay type: in vivo
Procedure: The derivatives of the invention were used in the test with aconitine on the rat. For this test, the anesthetized rat was intoxicated by an intravenous perfusion of aconitine (solution of aconitine nitrate: 15 mg/l; speed of perfusion: 0.4 ml/min) while its electrocardiogram was recorded permanently. During perfusion at constant speed, the time necessary for the appearance of ventricular arrhythmias, successively ventricular extrasystoles (ESV), ventricular tachycardium (TV) and ventricular fibrillation (FV) was measured.
The animals were divided into a control group (untreated) and treated group (different doses). The results are expressed as a percentage of prolonging the time of the appearance of the arrhythmias in the treated groups in relation to the control group. This prolongation of arrhythmia appearance time therefore corresponds to myocardiac protection against the arrhythmic effects of aconitine.

[4] = test system: anoxic ventricular fibrillation in mice; experiment: Cardiac antifibrillatory activity on the mouse (Lawson test); assay type: in vivo; conditions: ip, intraperitoneal, 10 minutes before chloroform, read-out: ED 50 (protects half the mice against anoxic ventricular fibrillation)
Procedure: Cardiac antifibrillatory activity of the derivatives of the invention has been verified on the mouse using the Lawson test, in accordance with the method described by J. W. Lawson, J. Pharmacol. Exp. Therp. 160, 22-31 (1968), and C. Narcisse et al., Ann. Pharm. Fr. 37, 325-330 (1979).
The mice (20 per dose) received an intraperitoneal injection of the derivative 10 minutes before being placed in a chloroform saturated atmosphere. As soon as respiratory arrest occurred, the thorax was opened (5 to 10 seconds) and the state of the heart was checked: presence or absence of ventricular fibrillation. The efficacy dose 50 (ED 50) of the derivative being studied is the dose which protects half the mice against anoxic ventricular fibrillation.

[5] = test system: ventricular extrasystoles in the dog; experiment: Harris test on the dog; assay type: in vivo; conditions: during the 2 hours following the injection
Procedure: By way of example, the number of ventricular extrasystoles per minute decreases by approximately 50% during the 2 hours following the injection of the product, in the case of the derivative described in Example 10. Moreover, the antiarrhythmic effect (myocardiac protection) increases with the size of the dose injected.

[6] = Example 2 series, i.v., dose 0.5 mg/kg
[7] = Example 2 series, i.v., dose +1 mg/kg
[8] = Example 2 series, i.v., dose +3 mg/kg
[9] = Example 2 series, i.v., dose +5 mg/kg
[10] = Example 2 series, i.v., first dose of +10 mg/kg
[11] = Example 2 series, i.v., second dose of +10 mg/kg
[12] = anesthetized dog, i.v., cumulative dose
[13] = oral (P.O.), 5 males and 5 females per dose, read-out: LD 50 P.O.
[14] = read-out: Prolongation of time of appearance of ventricular extrasystoles (ESV)
[15] = read-out: Prolongation of time of appearance of ventricular fibrillation (FV)
[16] = read-out: Prolongation of time of appearance of ventricular tachycardium (TV)
[17] = Example 4 series, i.v., dose 1 mg/kg
[18] = Example 4 series, i.v., dose +3 mg/kg
[19] = Example 4 series, i.v., dose +10 mg/kg
[20] = Example 4 series, i.v., dose +20 mg/kg
[21] = Example 4 series, i.v., dose +40 mg/kg

Compound: Cc1c(-c2ccccc2)n[nH]c1OCCN1CCCC1 [Example 2, 3-Phenyl-4-methyl-5-pyrrolidinoethoxy-pyrazole]
- (dp/dt)l/p, percentage of variation (anesthetized dog; [6]): 0%
- Cardiac flow, percentage of variation (anesthetized dog; [6]): 0%
- Cardiac frequency, percentage of variation (anesthetized dog; [6]): 0%
- Contraction force of the myocardium, percentage of variation (anesthetized dog; [6]): 0%
- Systolic arterial pressure, percentage of variation (anesthetized dog; [6]): +4%
- Systolic volume, percentage of variation (anesthetized dog; [6]): 0%
- (dp/dt)l/p, percentage of variation (anesthetized dog; [7]): -7%
- Cardiac flow, percentage of variation (anesthetized dog; [7]): -5%
- Cardiac frequency, percentage of variation (anesthetized dog; [7]): -8%
- Contraction force of the myocardium, percentage of variation (anesthetized dog; [7]): 0%
- Systolic arterial pressure, percentage of variation (anesthetized dog; [7]): 0%
- Systolic volume, percentage of variation (anesthetized dog; [7]): +3%
- (dp/dt)l/p, percentage of variation (anesthetized dog; [8]): -30%
- Cardiac flow, percentage of variation (anesthetized dog; [8]): -5%
- Cardiac frequency, percentage of variation (anesthetized dog; [8]): -8%
- Contraction force of the myocardium, percentage of variation (anesthetized dog; [8]): -20%
- Systolic arterial pressure, percentage of variation (anesthetized dog; [8]): 0%
- Systolic volume, percentage of variation (anesthetized dog; [8]): +3%
- (dp/dt)l/p, percentage of variation (anesthetized dog; [9]): -30%
- Cardiac flow, percentage of variation (anesthetized dog; [9]): -20%
- Cardiac frequency, percentage of variation (anesthetized dog; [9]): -8%
- Contraction force of the myocardium, percentage of variation (anesthetized dog; [9]): -20%
- Systolic arterial pressure, percentage of variation (anesthetized dog; [9]): -8%
- Systolic volume, percentage of variation (anesthetized dog; [9]): -12%
- (dp/dt)l/p, percentage of variation (anesthetized dog; [10]): -38%
- Cardiac flow, percentage of variation (anesthetized dog; [10]): -37%
- Cardiac frequency, percentage of variation (anesthetized dog; [10]): -8%
- Contraction force of the myocardium, percentage of variation (anesthetized dog; [10]): -10%
- Systolic arterial pressure, percentage of variation (anesthetized dog; [10]): -12%
- Systolic volume, percentage of variation (anesthetized dog; [10]): -31%
- (dp/dt)l/p, percentage of variation (anesthetized dog; [11]): -46%
- Cardiac flow, percentage of variation (anesthetized dog; [11]): -45%
- Cardiac frequency, percentage of variation (anesthetized dog; [11]): -8%
- Contraction force of the myocardium, percentage of variation (anesthetized dog; [11]): -20%
- Systolic arterial pressure, percentage of variation (anesthetized dog; [11]): -20%
- Systolic volume, percentage of variation (anesthetized dog; [11]): -40%
- maximum decrease of force of ventricular myocardiac contractions (anesthetized dog; after injection of 4.5 mg/kg to 29 mg/kg): -20%
- Cardiac frequency (result in words) (anesthetized dog; anesthetized dog, i.v.): drops moderately
- Systolic arterial pressure (result in words) (anesthetized dog; anesthetized dog, i.v.): drops moderately
- force of ventricular myocardiac contractions (result in words) (anesthetized dog; anesthetized dog, i.v.): decreases
- cumulative dose after which the decrease of systolic arterial pressure appears (anesthetized dog; [12]): > 4.5 mg/kg
- cumulative dose at which a 20% drop of cardiac flow is reached (anesthetized dog; [12]): greater than 9 mg/kg
- inhibition at 10 µg/mL [1]: 56%
- LD50 [2, 13]: 500 mg/kg
- local anesthesia (rabbit cornea): 100%
- change in vivo at 10 mg/kg [3, 14]: 32%
- change in vivo at 10 mg/kg [3, 15]: 44%
- change in vivo at 10 mg/kg [3, 16]: 30%

Compound: Clc1ccc(-c2cc(OCCCN3CCCCC3)[nH]n2)cc1 [Example 3, 3-p-Chlorphenyl-5-piperidinopropoxy-pyrazole]
- ED50 [4]: 35 mg/kg
- inhibition at 10 µg/mL [1]: 53%
- LD50 [2, 13]: 700 mg/kg
- local anesthesia (rabbit cornea): 100%
- change in vivo at 10 mg/kg [3, 14]: 6%
- change in vivo at 10 mg/kg [3, 15]: 46%
- change in vivo at 10 mg/kg [3, 16]: 28%

Compound: Cc1c(-c2ccccc2)n[nH]c1OCCN1CCOCC1 [Example 4, 3-Phenyl-4-methyl-5-morpholinoethoxy-pyrazole]
- ED50 [4]: 46 mg/kg
- (dp/dt)l/p, percentage of variation (anesthetized dog; [17]): +10%
- Cardiac flow, percentage of variation (anesthetized dog; [17]): 0%
- Cardiac frequency, percentage of variation (anesthetized dog; [17]): 0%
- Contraction force of the myocardium, percentage of variation (anesthetized dog; [17]): +5%
- Systolic arterial pressure, percentage of variation (anesthetized dog; [17]): 0%
- Systolic volume, percentage of variation (anesthetized dog; [17]): 0%
- (dp/dt)l/p, percentage of variation (anesthetized dog; [18]): +2%
- Cardiac flow, percentage of variation (anesthetized dog; [18]): 0%
- Cardiac frequency, percentage of variation (anesthetized dog; [18]): 0%
- Contraction force of the myocardium, percentage of variation (anesthetized dog; [18]): +10%
- Systolic arterial pressure, percentage of variation (anesthetized dog; [18]): 0%
- Systolic volume, percentage of variation (anesthetized dog; [18]): 0%
- (dp/dt)l/p, percentage of variation (anesthetized dog; [19]): -10%
- Cardiac flow, percentage of variation (anesthetized dog; [19]): -23%
- Cardiac frequency, percentage of variation (anesthetized dog; [19]): 0%
- Contraction force of the myocardium, percentage of variation (anesthetized dog; [19]): +26%
- Systolic arterial pressure, percentage of variation (anesthetized dog; [19]): 0%
- Systolic volume, percentage of variation (anesthetized dog; [19]): -23%
- (dp/dt)l/p, percentage of variation (anesthetized dog; [20]): -21%
- Cardiac flow, percentage of variation (anesthetized dog; [20]): -34%
- Cardiac frequency, percentage of variation (anesthetized dog; [20]): 0%
- Contraction force of the myocardium, percentage of variation (anesthetized dog; [20]): +42%
- Systolic arterial pressure, percentage of variation (anesthetized dog; [20]): 0%
- Systolic volume, percentage of variation (anesthetized dog; [20]): -34%
- (dp/dt)l/p, percentage of variation (anesthetized dog; [21]): -10%
- Cardiac flow, percentage of variation (anesthetized dog; [21]): -11%
- Cardiac frequency, percentage of variation (anesthetized dog; [21]): -18%
- Contraction force of the myocardium, percentage of variation (anesthetized dog; [21]): +52%
- Systolic arterial pressure, percentage of variation (anesthetized dog; [21]): 0%
- Systolic volume, percentage of variation (anesthetized dog; [21]): -8%
- Cardiac frequency (result in words) (anesthetized dog; anesthetized dog, i.v.): does not change
- Systolic arterial pressure (result in words) (anesthetized dog; anesthetized dog, i.v.): does not change
- force of ventricular myocardiac contractions (result in words) (anesthetized dog; anesthetized dog, i.v.): increases
- cumulative dose at which a 20% drop of cardiac flow is reached (anesthetized dog; [12]): greater than 4 mg/kg
- inhibition at 10 µg/mL [1]: 27%
- LD50 [2, 13]: 750 mg/kg
- local anesthesia (rabbit cornea): 100%
- change in vivo at 10 mg/kg [3, 14]: 7%
- change in vivo at 10 mg/kg [3, 15]: 18%
- change in vivo at 10 mg/kg [3, 16]: 22%

Compound: Clc1ccc(-c2cc(OCCN3CCCC3)[nH]n2)cc1 [Example 7]
- ED50 [4]: 66 mg/kg
- inhibition at 10 µg/mL [1]: 45%
- LD50 ([2]; ip, intraperitoneal (I.P.), read-out: LD 50 I.P.): 280 mg/kg
- LD50 [2, 13]: 1000 mg/kg
- local anesthesia (rabbit cornea): 100%
- change in vivo at 10 mg/kg [3, 14]: 11%
- change in vivo at 10 mg/kg [3, 15]: 32%
- change in vivo at 10 mg/kg [3, 16]: 45%

Compound: c1ccc(-c2cc(OCCN3CCCCC3)[nH]n2)cc1 [Example 9]
- ED50 [4]: 44 mg/kg
- Cardiac frequency (result in words) (anesthetized dog; anesthetized dog, i.v.): drops moderately
- Systolic arterial pressure (result in words) (anesthetized dog; anesthetized dog, i.v.): does not change
- force of ventricular myocardiac contractions (result in words) (anesthetized dog; anesthetized dog, i.v.): does not vary significantly
- cumulative dose at which a 20% drop of cardiac flow is reached (anesthetized dog; [12]): greater than 4 mg/kg
- inhibition at 10 µg/mL [1]: 48%
- LD50 [2, 13]: 400 to 800 mg/kg
- local anesthesia (rabbit cornea): 100%
- change in vivo at 10 mg/kg [3, 14]: 0%
- change in vivo at 10 mg/kg [3, 15]: 38%
- change in vivo at 10 mg/kg [3, 16]: 28%

Compound: Clc1ccc(-c2cc(OCCN3CCOCC3)[nH]n2)cc1 [Example 10]
- decrease of the number of ventricular extrasystoles per minute [5]: approximately 50%
- inhibition at 10 µg/mL [1]: 15%
- LD50 [2, 13]: 1000 mg/kg
